Columns and labels:
CoA-IT [1] = experiment: CoA-IT activity assay in U937 cell microsomes; format: biochemical
Excerpt: The following is a method to measure CoA-IT activity and the effects of compounds on CoA-IT activity. The assay is based upon mixing cellular material containing CoA-IT activity with a stable lyso phospholipid such as […] and measuring the production of phospholipid product such as […] occurring in the absence of added CoA or CoA-fatty acids.
Any inflammatory cell that contains high levels of CoA-IT activity can be used, such as neutrophils, macrophages or cell lines such as U937 cells. U937 cells were obtained from American Type Culture Collection and grown in RPMI-1640 media (Gibco, Grand Island, N.Y.) supplemented with 10% fetal bovine serum (Hyclone, Logan, UT) at 37° C., 5% CO2. Cells were grown without differentiation (basal state) by any agent, such as dimethyl sulfoxide. As used herein, “inflammatory cells” include, but are not limited to neutrophils, macrophages, monocytes, lymphocytes, eosinophils, basophils, and mast cells.
Microsomes were prepared using standard techniques. In this case, cells were washed with a buffer of 250 mM sucrose, 10 mM Tris, 1 mM EGTA, 1 mM MgCl2, pH 7.4 and ruptured by N2 cavitation (750 psi, 10 minutes). The ruptured cells were centrifuged 1000×g, 5 minutes. The resulting supernatant was centrifuged at 20,000×g,˜20 minutes. Microsomes were prepared from this supernatant by centrifugation at 100,000×g, 60 minutes. The resulting pellet was washed once with assay buffer (150 mM NaCl, 10 mM Na2KPO4, 1 mM EGTA, pH 7.4), recentrifuged and the pellet resuspended in assay buffer (4-20 mg protein/ml) and was stored at −80° C. until assayed.
CoA-II activity was measured in 1.5 ml centrifuge tubes in a total volume of 100 ul. Microsomes were diluted in assay buffer to the desired protein concentration (6-20 ug/tube). The reaction was initiated by addition of [3H]1-alkyl-2-lyso-sn-glycero-3-phosphocholine (GPC) (˜0.1 uCi/tube) and 1 μM final cold 1-alkyl-2-lyso-GPC in assay buffer with 0.25 mg/ml fatty acid-poor bovine serum albumin (BSA) (Calbiochem, La Jolla, Calif.). [3H]1-alkyl-2-lyso-GPC, approximately 50 Ci/mmol, was from NEN-Dupont (Boston, Mass.) and cold 1-alkyl-2-lyso-GPC was from Biomol (Plymouth Meeting, Pa.). Microsomes were pretreated with desired agents for the desired time (10 minutes) before the addition of [3H]1-alkyl-2-lyso-GPC. The reaction was run for the desired tlime (10 minutes) at 37° C. The reaction was stopped and the lipids extracted by addition of 100 ul of chloroform:methanol (1:2, v/v) followed by 100 ul of chloroform and 100 ul of 1 M KCI. The samples were vortexed and centrifuged at high speed in a microfuge for 2-3 minutes. An aliquot of the chloroform-extracted materials were separated, usually by TLC in chloroform/methanol/acetic acid/water (50:25:8:4, v/v), visualized by radioscanning (Bioscan) and the product, [3H]1-alkyl-2-acyl-GPC, was scraped and quantified by liquid scintillation spectroscopy. […] Other methods can be used to separate substrate from product, including but not limited to column chromatography, affinity chromatography and post reaction derivitization.
Protein concentration were assessed using the protein assay reagents from Bio Rad (Richmond, Calif.).

CoA-IT [2] = details: literature, background; cited from earlier work
neoplastic cell lines = details: literature, background; several neoplastic cell lines; cited from earlier work

SMILES: COc1cccc2c1cc([N+](=O)[O-])c1c(C(=O)O)cc3c(c12)OCO3 [aristolochic acid]
- effect on CoA-IT activity (CoA-IT [1]; at concentrations up to 500 μM): no effect

SMILES: CCOP(=O)(CCCCCCCn1c(-c2ccccc2)c(-c2ccccc2)n(-c2ccccc2)c1=O)OCC [SK&F 98625, Diethyl 7-(3,4,5-triphenyl-2-oxo-2,3-dihydroimidazol-1yl)heptane phosphonate]
- inhibition of CoA-IT (CoA-IT [2]): capable of inhibiting CoA-IT
- antiproliferative / apoptosis effect (neoplastic cell lines): possess antiproliferative properties

SMILES: O=S1(=O)CCn2c1nc(-c1ccc(F)cc1)c2-c1ccncc1 [6-(4′-Fluorophenyl)-5-(4-pyridyl)2,3-dihydroimidzo-[2,1-b]thiazole-dioxide]
- effect on CoA-IT activity (CoA-IT [1]; at concentrations up to 100 μM): no effect

SMILES: COc1ccc2c(c1)c(CC(=O)O)c(C)n2C(=O)c1ccc(Cl)cc1 [indomethicin]
- effect on CoA-IT activity (CoA-IT [1]; at concentrations up to 100 μM): no effect

SMILES: O=C(Nc1ccc(Cl)c(C(F)(F)F)c1)Nc1cc(C(F)(F)F)ccc1Oc1cc(Cl)c(Cl)cc1S(=O)(=O)O [SK&F 45905, 2-[2-[3-(4-Chloro-3-trifluoromethylphneyl)ureido]-4-tifluromethylphenoxy]-4,5-dichlorobenzene sulfonic acid]
- inhibition of CoA-IT (CoA-IT [2]): capable of inhibiting CoA-IT
- antiproliferative / apoptosis effect (neoplastic cell lines): possess antiproliferative properties

SMILES: COc1ccc2cc([C@H](C)C(=O)O)ccc2c1 [naproxen]
- effect on CoA-IT activity (CoA-IT [1]; at concentrations up to 100 μM): no effect

SMILES: CN(C)CCC=C1c2ccccc2COc2ccccc21 [Doxepine]
- effect on CoA-IT activity (CoA-IT [1]; at concentrations up to 100 μM): did not inhibit

SMILES: COC(=O)CCCO[C@@H]1NC(=O)[C@H]1NC(c1ccccc1)(c1ccccc1)c1ccccc1 [Example 17, (3S,4S)-4-[3-(Methoxycarbonyl)propoxy]-3-(triphenylmethylamino)azetidin-2-one]
- activity in microsomal CoA-IT assay under other conditions (CoA-IT [1]; increased uM or longer pretreatment time): active at either increased uM or longer pretreatment time

SMILES: Cc1cc(C(C)(C)C)c(O)c(C(C)(C)C)c1 [BHT]
- effect on CoA-IT activity (CoA-IT [1]; at concentrations up to 100 μM): no effect

SMILES: Fc1ccc(-c2nc3n(c2-c2ccncc2)CCS3)cc1 [6-(4′-Fluorophenyl)-5-(4-pyridyl)-2,3-dihydroimidzo-[2,1-b]thiazole]
- effect on CoA-IT activity (CoA-IT [1]; at concentrations up to 100 μM): no effect

SMILES: CCCCCCCCCCCCCCCCCCOCC(COP(=O)([O-])OCC[N+](C)(C)C)OC (stereo not drawn) [ET-18-0-CH3, 1-0-octadecyl-2-0-methyl-phosphocholine]
- inhibition of CoA-IT (CoA-IT [2]): potent inhibitor
- antiproliferative / apoptosis effect (neoplastic cell lines): attenuate cell proliferation and induce apoptosis

SMILES: CCN(CC)CCCC(C)Nc1c2ccc(Cl)cc2nc2ccc(OC)cc12 (stereo not drawn) [quinacrine]
- effect on CoA-IT activity (CoA-IT [1]; at concentrations up to 500 μM): no effect

Reference: patent publication US6451785B1, “Beta lactams as antiproliferative agents” (SmithKline Beecham Corporation, priority 1997, dated 2002)
